Experimental data: patent US20030054535A1, “Endoglucanase mutants and mutant hydrolytic depolymerizing enzymes and uses thereof” (priority 1999, published 2003)
Values joined by “and” are separate entries in the source; they are usually repeats but may differ in a detail not shown here. Identical values can stand only once.

Tests used:
Format in all cases: biochemical
[1] = target: T1, Acidothermus cellulolyticus EI endoglucanase (Cel5A) catalytic domain variant W42R, SEQ ID NO:1 (Acidothermus cellulolyticus, UniProt P54583, W83R); assay: Michaelis-Menten kinetics of cellotriose hydrolysis (cellobiose release), EIW42R; conditions: relative to native enzyme
T1 construct: the protein was genetically truncated near the beginning of the linker peptide; made in house; host or cells: E. coli XL1-blue
Protocol: (§1) Each assay mixture was pre-incubated at 50 degrees C. for 10 min. prior to the addition of 0.00272 micromolar (0. 1092 microgram/mL) enzyme, which was also made up in 5 mM acetate buffer with 10 microgram/mL BSA. The final assay volume was 0.1 mL.
(§2) At set-time intervals, an aliquot of the reaction mixture was pulled and immediately analyzed for the release of cellobiose using a Dionex DX300 chromatography system and a Dionex PAD2 pulsed amperometric detector having a gold working electrode. The response of this detector was optimized for the detection of carbohydrates using a waveform defined by the following time and potential settings: t1=420 msec.; EI=+0.05 V; t2=180 msec.; E2=+0.75 V; t3=360 msec.; and E3=−0.15 V. Separation of the reaction products, from the substrate, was achieved on a Dionex CarboPac PA-1 analytical (4×250 mm) column equipped with CarboPac PA-1 ([…], 500 mM sodium hydroxide eluent, and a flow rate of 1.5 mL/min. The amount of cellobiose present for each time-point-sample was quantified by comparing the area of the cellobiose peak against a linear calibration curve. The kinetic constants were determined with a double-reciprocal-plot, where the reciprocal of the rate of cellobiose produced was plotted as a function of the inverse of the substrate concentration.
(§3) Michaelis-Menten kinetics of the mutant EI enzymes and the native enzyme were determined.

[2] = target: T2, Acidothermus cellulolyticus EI endoglucanase (Cel5A) catalytic domain variant Y82R, SEQ ID NO:2 (Acidothermus cellulolyticus, UniProt P54583, Y123R); assay: Michaelis-Menten kinetics of cellotriose hydrolysis (cellobiose release), EIY82R; conditions: relative to native enzyme
T2 construct: the protein was genetically truncated near the beginning of the linker peptide; made in house; host or cells: E. coli XL1-blue
Protocol: as §1, §2, §3

[3] = target: T3, Acidothermus cellulolyticus EI endoglucanase (Cel5A) catalytic domain variant Y245G, SEQ ID NO:3 (Acidothermus cellulolyticus, UniProt P54583, Y286G); assay: Inhibition by cellobiose of hydrolysis of 4-methylumbelliferyl-β-D-cellobioside (MUC), Y245G mutant
T3 construct: the mutant and wild type Cel5A catalytic domains were purified using the purification methods described above; made in house; host or cells: E. coli XL1-blue
Protocol: (§4) The enzymes (0.682 ng) were incubated for 30 min with the substrate at each of two concentrations (4 and 20 μM), in the presence of D-cellobiose (Sigma, St. Louis) )at concentrations ranging from 0 to 5 mM for the wild type catalytic domain, and from 0 to 50 mM for the Y245G mutant. At the end of the incubation period, the reaction in each 1-mL assay mixture was terminated by addition of 2 mL of 0.5 M sodium carbonate, pH 10.0. The extent of hydrolysis was then determined from the fluorescence of the ionized product, 4-methylumbelliferone, as measured in a SPEX FLUOROLOG spectrofluorometer with excitation wavelength at 380 nm and emission wavelength at 455 nm. These studies established that under these conditions, […]. Inhibition constants were then determined by means of Dixon plots of reciprocal velocity versus inhibitor concentration (Segel, 1975).
(§5) The mutant Cel5A enzyme, Y245G, was generated by PCR mutagenesis, and the mutant and wild type Cel5A catalytic domains were purified using the purification methods described above. […] For this reason, the molar extinction coefficients of the recombinant enzymes were calculated by considering the specific change in amino acid composition.

[4] = target: T4, Acidothermus cellulolyticus EI endoglucanase (Cel5A) catalytic domain, wild type (native), SEQ ID NO:3 of U.S. Pat. No. 5,536,655 (Acidothermus cellulolyticus, UniProt P54583); assay: Inhibition by cellobiose of hydrolysis of 4-methylumbelliferyl-β-D-cellobioside (MUC), wild type; conditions: Ki for inhibition by cellobiose, substrate MUC 4 and 20 μM, 30 min, cellobiose 0 to 5 mM, Dixon plots
T4 construct: the mutant and wild type Cel5A catalytic domains were purified using the purification methods described above; made in house; host or cells: E. coli XL1-blue
Protocol: as §4, §5

T3 sequence (P54583 42-399 Y286G): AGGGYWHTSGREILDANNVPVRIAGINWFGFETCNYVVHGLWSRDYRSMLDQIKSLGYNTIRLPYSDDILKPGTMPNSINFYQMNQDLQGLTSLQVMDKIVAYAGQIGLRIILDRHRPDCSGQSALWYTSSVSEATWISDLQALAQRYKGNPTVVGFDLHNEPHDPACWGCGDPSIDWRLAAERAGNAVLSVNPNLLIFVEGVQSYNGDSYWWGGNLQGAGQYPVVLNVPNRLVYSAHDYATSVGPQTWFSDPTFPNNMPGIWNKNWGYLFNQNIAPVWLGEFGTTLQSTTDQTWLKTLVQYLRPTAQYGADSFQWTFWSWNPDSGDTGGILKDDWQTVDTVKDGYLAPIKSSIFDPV
T4 sequence (P54583 42-400): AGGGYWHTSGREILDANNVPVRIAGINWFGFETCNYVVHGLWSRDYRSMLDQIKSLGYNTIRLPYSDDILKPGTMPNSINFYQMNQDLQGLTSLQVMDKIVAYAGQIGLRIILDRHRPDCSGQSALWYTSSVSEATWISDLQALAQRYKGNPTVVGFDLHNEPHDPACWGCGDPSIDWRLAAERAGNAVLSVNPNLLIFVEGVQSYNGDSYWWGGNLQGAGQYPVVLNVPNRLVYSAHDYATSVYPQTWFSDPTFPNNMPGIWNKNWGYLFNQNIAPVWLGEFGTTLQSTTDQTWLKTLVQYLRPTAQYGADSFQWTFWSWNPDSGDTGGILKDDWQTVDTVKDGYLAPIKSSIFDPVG
T2 sequence (P54583 42-399 Y123R): as the sequence (P54583 42-399 Y286G) above, with Y82R, G245Y counted along it
T1 sequence (P54583 42-399 W83R): as the sequence (P54583 42-399 Y286G) above, with W42R, G245Y counted along it

Structure (SMILES): OC[C@H]1O[C@@H](O[C@H]2[C@H](O)[C@@H](O)[C@H](O[C@H]3[C@H](O)[C@@H](O)C(O)O[C@@H]3CO)O[C@@H]2CO)[C@H](O)[C@@H](O)[C@@H]1O (some centres unmarked) [cellotriose]
- Vmax, % higher than that of the native enzyme [1]: about 15%
- Vmax, % higher than that of the native enzyme [2]: ~75%

Structure (SMILES): OC[C@H]1O[C@@H](O[C@H]2[C@H](O)[C@@H](O)C(O)O[C@@H]2CO)[C@H](O)[C@@H](O)[C@@H]1O (stereo partly drawn) [cellobiose, D-cellobiose]
- Ki ([3]; Ki for inhibition by cellobiose, substrate MUC 4 and 20 μM, 30 min, cellobiose 0 to 50 mM, Dixon plots): 29.7 mM and 30 mM
- decrease in apparent binding energy of cellobiose versus native enzyme ([3]; from increase in Ki, Y245G relative to wild type): 1.7 kcal/mol and ~1.5 kcal/mol
- Ki [4]: 1.88 mM and 2 mM
